In the NIST ThermoML archive (doi:10.1021/je800355e):
“And” between values parts separate entries of the source, which are not always exact repeats. Equal values may be shown once. Numbers after ± are expanded uncertainties.

assay: activity coefficient (dimensionless); of the first substance listed, at infinite dilution; xn = mol fraction of the nth substance listed; settings: 293.15 K; 101 kPa; Liquid; Chromatography; x1 = 0

Structure (SMILES) | activity coefficient
CC(C)CO [2-methyl-1-propanol] + CCCCCC[n+]1ccn(C)c1.O=S(=O)([N-]S(=O)(=O)C(F)(F)F)C(F)(F)F | 2.39 and 2.44
CC(C)CO [2-methyl-1-propanol] + CCCCn1cc[n+](C)c1.F[P-](F)(F)(F)(F)F | 8.39 ± 0.57
CC(C)(C)O [2-methylpropan-2-ol] + CCCCCC[n+]1ccn(C)c1.O=S(=O)([N-]S(=O)(=O)C(F)(F)F)C(F)(F)F | 1.68 and 1.66
CC(C)(C)O [2-methylpropan-2-ol] + CCCCn1cc[n+](C)c1.F[P-](F)(F)(F)(F)F | 4.83 ± 0.33
CCCCO [butan-1-ol] + CCCCCC[n+]1ccn(C)c1.O=S(=O)([N-]S(=O)(=O)C(F)(F)F)C(F)(F)F | 2.5 ± 0.19
CCCCO [butan-1-ol] + CCCCn1cc[n+](C)c1.F[P-](F)(F)(F)(F)F | 8.17 ± 0.56
CCC(C)O (stereo not drawn) [butan-2-ol] + CCCCCC[n+]1ccn(C)c1.O=S(=O)([N-]S(=O)(=O)C(F)(F)F)C(F)(F)F | 2.03 ± 0.16
CCC(C)O (stereo not drawn) [butan-2-ol] + CCCCn1cc[n+](C)c1.F[P-](F)(F)(F)(F)F | 6.47 ± 0.44
CCO [ethanol] + CCCCCC[n+]1ccn(C)c1.O=S(=O)([N-]S(=O)(=O)C(F)(F)F)C(F)(F)F | 1.85 and 1.82
CCO [ethanol] + CCCCn1cc[n+](C)c1.F[P-](F)(F)(F)(F)F | 3.81 ± 0.26
CO [methanol] + CCCCCC[n+]1ccn(C)c1.O=S(=O)([N-]S(=O)(=O)C(F)(F)F)C(F)(F)F | 1.54 and 1.5
CO [methanol] + CCCCn1cc[n+](C)c1.F[P-](F)(F)(F)(F)F | 2.59 ± 0.18
CCCO [propan-1-ol] + CCCCCC[n+]1ccn(C)c1.O=S(=O)([N-]S(=O)(=O)C(F)(F)F)C(F)(F)F | 2.08 and 2.09
CCCO [propan-1-ol] + CCCCn1cc[n+](C)c1.F[P-](F)(F)(F)(F)F | 5.53 ± 0.38
CC(C)O [propan-2-ol] + CCCCCC[n+]1ccn(C)c1.O=S(=O)([N-]S(=O)(=O)C(F)(F)F)C(F)(F)F | 1.95 ± 0.15
CC(C)O [propan-2-ol] + CCCCn1cc[n+](C)c1.F[P-](F)(F)(F)(F)F | 4.8 ± 0.33

same assay, conditions: 298.15 K; 101 kPa; Liquid; Chromatography; x1 = 0

Structure (SMILES) | activity coefficient
CC(C)CO [2-methyl-1-propanol] + CCCCn1cc[n+](C)c1.COS(=O)(=O)[O-] | 1.44 ± 0.12
CC(C)(C)O [2-methylpropan-2-ol] + CCCCn1cc[n+](C)c1.COS(=O)(=O)[O-] | 1.38 ± 0.11
CCC(C)O (stereo not drawn) [butan-2-ol] + CCCCn1cc[n+](C)c1.COS(=O)(=O)[O-] | 1.45 ± 0.12
CCO [ethanol] + CCCCn1cc[n+](C)c1.COS(=O)(=O)[O-] | 0.64 ± 0.05
CO [methanol] + CCCCn1cc[n+](C)c1.COS(=O)(=O)[O-] | 0.39 ± 0.04
CCCO [propan-1-ol] + CCCCn1cc[n+](C)c1.COS(=O)(=O)[O-] | 0.96 ± 0.08
CC(C)O [propan-2-ol] + CCCCn1cc[n+](C)c1.COS(=O)(=O)[O-] | 1.03 ± 0.08

same assay, conditions: 298.15 K; 101 kPa; Liquid; x1 = 0

Structure (SMILES) | activity coefficient
CCCCO [butan-1-ol] + CCCCn1cc[n+](C)c1.COS(=O)(=O)[O-] | 1.68 ± 0.14

same assay, conditions: 313.15 K; 101 kPa; Liquid; Chromatography; x1 = 0

Structure (SMILES) | activity coefficient
CC(C)CO [2-methyl-1-propanol] + CCCCCC[n+]1ccn(C)c1.O=S(=O)([N-]S(=O)(=O)C(F)(F)F)C(F)(F)F | 1.88 and 1.87
CC(C)CO [2-methyl-1-propanol] + CCCCn1cc[n+](C)c1.COS(=O)(=O)[O-] | 1.29 ± 0.11
CC(C)CO [2-methyl-1-propanol] + CCCCn1cc[n+](C)c1.F[P-](F)(F)(F)(F)F | 5.74 ± 0.39
CC(C)(C)O [2-methylpropan-2-ol] + CCCCCC[n+]1ccn(C)c1.O=S(=O)([N-]S(=O)(=O)C(F)(F)F)C(F)(F)F | 1.4 and 1.35
CC(C)(C)O [2-methylpropan-2-ol] + CCCCn1cc[n+](C)c1.COS(=O)(=O)[O-] | 1.27 ± 0.1
CC(C)(C)O [2-methylpropan-2-ol] + CCCCn1cc[n+](C)c1.F[P-](F)(F)(F)(F)F | 3.68 ± 0.25
CCCCO [butan-1-ol] + CCCCCC[n+]1ccn(C)c1.O=S(=O)([N-]S(=O)(=O)C(F)(F)F)C(F)(F)F | 2.02 ± 0.16
CCCCO [butan-1-ol] + CCCCn1cc[n+](C)c1.F[P-](F)(F)(F)(F)F | 5.9 ± 0.4
CCC(C)O (stereo not drawn) [butan-2-ol] + CCCCCC[n+]1ccn(C)c1.O=S(=O)([N-]S(=O)(=O)C(F)(F)F)C(F)(F)F | 1.67 and 1.65
CCC(C)O (stereo not drawn) [butan-2-ol] + CCCCn1cc[n+](C)c1.COS(=O)(=O)[O-] | 1.31 ± 0.11
CCC(C)O (stereo not drawn) [butan-2-ol] + CCCCn1cc[n+](C)c1.F[P-](F)(F)(F)(F)F | 4.8 ± 0.33
CCO [ethanol] + CCCCCC[n+]1ccn(C)c1.O=S(=O)([N-]S(=O)(=O)C(F)(F)F)C(F)(F)F | 1.49 and 1.47
CCO [ethanol] + CCCCn1cc[n+](C)c1.COS(=O)(=O)[O-] | 0.61 ± 0.05
CCO [ethanol] + CCCCn1cc[n+](C)c1.F[P-](F)(F)(F)(F)F | 2.94 ± 0.2
CO [methanol] + CCCCCC[n+]1ccn(C)c1.O=S(=O)([N-]S(=O)(=O)C(F)(F)F)C(F)(F)F | 1.27 and 1.26
CO [methanol] + CCCCn1cc[n+](C)c1.COS(=O)(=O)[O-] | 0.36 ± 0.04
CO [methanol] + CCCCn1cc[n+](C)c1.F[P-](F)(F)(F)(F)F | 2.06 ± 0.14
CCCO [propan-1-ol] + CCCCCC[n+]1ccn(C)c1.O=S(=O)([N-]S(=O)(=O)C(F)(F)F)C(F)(F)F | 1.68 and 1.65
CCCO [propan-1-ol] + CCCCn1cc[n+](C)c1.COS(=O)(=O)[O-] | 0.88 ± 0.07
CCCO [propan-1-ol] + CCCCn1cc[n+](C)c1.F[P-](F)(F)(F)(F)F | 4.14 ± 0.28
CC(C)O [propan-2-ol] + CCCCCC[n+]1ccn(C)c1.O=S(=O)([N-]S(=O)(=O)C(F)(F)F)C(F)(F)F | 1.56 and 1.53
CC(C)O [propan-2-ol] + CCCCn1cc[n+](C)c1.COS(=O)(=O)[O-] | 0.94 ± 0.08
CC(C)O [propan-2-ol] + CCCCn1cc[n+](C)c1.F[P-](F)(F)(F)(F)F | 3.64 ± 0.25

same assay, conditions: 313.15 K; 101 kPa; Liquid; x1 = 0

Structure (SMILES) | activity coefficient
CCCCO [butan-1-ol] + CCCCn1cc[n+](C)c1.COS(=O)(=O)[O-] | 1.44 ± 0.11
